The source of these data is US11643413B2, “9-(2-oxacycloalkyl)-9H-purine-2,6-diamine derivatives and their use for the treatment of skin disorders” (UNIVERZITA PALACKEHO V OLOMOUCI, priority 2017, dated 2023).

The subject of series [1] is Rabbits (New Zealand Albino breed). To be noted: rabbit, in vivo. How it is done:
The test substance 114 was tested in Animal skin irritation test. Rabbits (New Zealand Albino breed) were used for the test. The test was performed according to ČSN EN ISO 10993 (Březen 2014): Biologické hodnoceni zdravotnických prostředků—část 10: Zkoušky dráždivosti a senzibilizace kůže, článek 6.3 Zkouška dráždivosti na zviřatech (Biological evaluation of medical devices—Part 10: Tests for irritation and delayed-type hypersensitivity). A dose 0.5 g of the test substance was applied to the skin of the back on each side of each rabbit. […] At first the one rabbit (test animal. No. 16) was used. Two other rabbits (rabbit No. 17 and No. 18) were used in confirmatory test. At the end of the contact time (4 hours) the dressings were removed and animals were examined for signs of erythema and oedema, and the response was evaluated at 1, 24, 48 and 72 hours afterpatches removal.

The nature of series [2]: Radical scavenging activity determined by ORAC. As to conditions: relative to trolox; Mean ± SD (n = 3). How it is done:
The ability of compounds to scavenge free radicals in vitro was determined by Oxygen Radical Absorbance Capacity (ORAC) method. In brief, fluorescein (100 μl, […]) and 25 μl of compound solution were added into each working well in a 96-well microplate preincubated at 37° C. Thereafter, 25 μL of 250 mM AAPH was quickly added, microplate was shaken for 5 s and the fluorescence (Ex. 485 nm, Em. 510 nm) was read every 3 min over 90 min by using microplate reader Infinite 200 (TECAN, Switzerland). The net area under the curve was used to express antioxidant activity relative to trolox which was used as a standard.

In series [3] the test system is human epidermal model EpiDerm™. Kind of series: In vitro skin irritation test, EpiDerm. The class given is cell-based. The method, then: Test substance was assayed for the in vitro skin irritation in human epidermal model EpiDerm™. The test was performed according to the Method B.46. In vitro skin irritation: Reconstructed human epidermis model test and Protocol for: In Vitro EpiDerm™ Skin Irritation Test For use with MatTek Corporation's Reconstructed Human Epidermal Model EPI-200-SIT (see par. 1.4, (1), (3)). Two types of extract were prepared by means of polar (water) as well as non-polar extractant (olive oil) according to directions given in ČSN EN ISO 10 993-12 (2012). After pre-incubation of tissues, 30 μl of an extract was placed directly atop to the tissue so it covered all tissue surfaces. Length of exposition was 60 minutes. Three tissues were used for the extract and for each control. The procedure was performed separately for each extract. After removal of extracts of the test substance from tissues, tissues were post incubated for 42 hours due to leave of damage reparation, followed by three hours incubation with MTT and two hours extraction period with shaking. Optical density (OD570) of isopropyl alcohol extracts was measured on a spectrophotometer. Relative cell viability was calculated for each tissue as % of the mean viability of the negative control tissues. Under the above-described experimental design, average viability of tissues treated by test substance water extract was 99.0% and by test substance olive oil extract 103.0%, i.e. viability was >50% in both cases. The effect of the test substance 114 was negative in EpiDerm™ model (tissues were not damaged). According to the classification criteria given in chapter 4.5, the test substance is considered to have no category in regard to skin irritation.

Another series deals with BJ skin fibroblasts. The series can be described thus: Intracellular ROS production, DCFH-DA probe. The class given is cell-based, human. As to conditions: 24 h incubation at 100, 10, 1 and 0.1 μM. The method, then: ROS production in living cells was determined by using the fluorescent probe DCFH-DA. In brief, compound 114 at 100, 10, 1 and 0.1 μM concentrations was incubated for 24 h with BJ skin fibroblasts. Thereafter, cells were washed with phosphate buffer and DCFH-DA was added. The fluorescence was read every 1 min over 20 min by using microplate reader Infinite M200 (TECAN, Switzerland). ROS production was calculated as the increase in fluorescence over 20 min.

Series [4] has as its system Salmonella typhimurium strains TA 98, TA 100, TA 1535, TA 1537. The series can be described thus: Ames test (Bacterial Reverse Mutation Test), Salmonella. In kind it is cell-based. As to conditions: 10-1000 μg per plate; without as well as with metabolic activation. The method, then: The test substance was (114) assayed for the mutagenicity by the Bacterial Reverse Mutation Test. The performed test was based on EU method B.13/14 Mutagenicity—Reverse mutation test using bacteria, which is analogous to the OECD Test Guideline No. 471. Four indicator Salmonella typhimurium strains TA 98, TA 100, TA 1535, TA 1537 and one indicator Escherichia coli WP2 uvrA strain were used. The test substance was dissolved in dimethylsulfoxide (DMSO) and assayed in doses of 10-1000 μg per plate, which were applied to plates in volume of 0.1 mL. Experiments were performed without as well as with metabolic activation with a supernatant of rat liver and a mixture of cofactors. The working procedure described is in accordance with the documents Method B.13/14, Mutagenicity: Reverse Mutation Test Using Bacteria, Council Regulation (EC) No. 440/2008. Published in O.J. L 142, 2008 and OECD Test Guideline 471, Bacterial Reverse Mutation Test. Adopted Jul. 21, 1997. In the arrangement given above, the test substance was non-mutagenic for all the used tester strains without as well as with metabolic activation.

A short description of series [5]: Calcein AM cytotoxicity, BJ. As to conditions: human, BJ foreskin fibroblasts.
Source text: (§1) One of the parameters used, as the basis for cytotoxicity assays, is the metabolic activity of viable cells. For example, a microtiter assay, which uses the Calcein AM, is now widely used to quantitate cell proliferation and cytotoxicity. […] Because only metabolically active cells cleave Calcein AM, these assays detect viable cells exclusively. The quantity of reduced Calcein AM corresponds to the number of vital cells in the culture.
(§2) Mouse fibroblasts NIH3T3; mouse immortalized bone marrow macrophages B2.4 and B10A.4, and BJ (human foreskin fibroblasts) were used for routine screening of compounds. The cells were maintained in Nunc/Corning 80 cm^2 plastic tissue culture flasks and cultured in cell culture medium (DMEM with 5 g/l glucose, 2 mM glutamine, 100 U/ml penicillin, 100 μg/ml streptomycin, 10% fetal calf serum and sodium bicarbonate).
(§3) The cell suspensions that were prepared and diluted according to the particular cell type and the expected target cell density (2.500-30.000 cells per well based on cell growth characteristics) were added by pipette (80 μl) into 96/well microtiter plates. Inoculates were allowed a pre-incubation period of 24 hours at 37° C. and 5% CO2 for stabilisation. Four-fold dilutions of the intended test concentration were added at time zero in 20 μl aliquots to the microtiter plate wells. Usually, the compound tested was evaluated at six 4-fold dilutions. […] All compound concentrations were examined in duplicates. Incubations of cells with the tested compounds lasted for 72 hours at 37° C., in 5% CO2 atmosphere and 100% humidity. At the end of the incubation period, the cells were assayed by using Calcein AM. Ten microliters of the stock solution were pipetted into each well and incubated for 1 hour. Fluorescence (FD) was measured with the Labsystem FIA Reader Fluoroscan Ascent (UK).
Series [6] can be described thus: Calcein AM cytotoxicity, NIH-3T3. To be noted: mouse, NIH-3T3 fibroblasts.
Source text: as §1, §2, §3
The next series can be described thus: in vivo. To be noted: both sexes, Wistar, rat, sc. The method, then: The aim of the study was to investigate acute toxic effects of the test substance, after a single subcutaneous administration to Wistar rats. The testing was performed according to the methods: ČSN EN ISO 10993-11: Biologické hodnoceni zdravotnických prostředků—část 11: Zkoušky na systémovou toxicitu and OECD Test Guideline No. 420 Acute Oral Toxicity—Fixed Dose Proceduře. Adopted 17 Dec. 2001. The test substance 114 was administered in a single dose as solution in vehicle (olive oil), given subcutaneously to male and female Wistar rats. The dosing was performed sequentially. The pre-test (the sighting study) was performed with 1 female and 1 male for each dose level. The dose level of 30 mg/kg was used as the starting dose. No death of animal was recorded at the starting dose, therefore the following dose level was used (100 mg/kg). […] The presence of subcutaneously administered test substance at the dose level of 30 and 100 mg/kg was visible to second day after application. […] According to the study results the Maximum Tolerated Dose (subcutaneous) of the test substance for male and female rats is >100 mg/kg.

Setting [7] is: 60 minutes exposition, 42 hours post incubation, MTT, % of negative control.

As for `CN(C)c1nc(NCc2ccco2)c2ncn(C3CCCCO3)c2n1` (stereo not drawn) [Compound 114, 2-(Dimethylamino)-6-furfurylamino-9-(tetrahydro-2H-pyran-2-yl)-9H-purine], the “Primary Irritation Index” value in series [1] (New Zealand Albino, 4 h) was determined as 0. In series [1], the “changes in animal weights” value is on record as “No changes in animal weights”; the “clinical signs of systemic intoxication” value is given as “No clinical signs of systemic intoxication”; the erythema and oedema result was “No erythema and oedema”; the skin irritation result is “No skin irritation”. Also, the “ORAC (compound/trolox)” value in series [2] was found to be 0.211 ± 0.018. In addition, in series [3], the skin irritation classification result is on record as “no category”. Besides, in series [3] (setting [7]), the “average viability of tissues, olive oil extract” value was found to be 103.0% and the “average viability of tissues, water extract” value is listed as 99.0%. In addition, the “effect in EpiDerm model” value in series [3] (water and olive oil extracts) is “negative”. Besides, the “concentration at which intracellular ROS production is significantly decreased” value in the series on BJ skin fibroblasts was ≥ 10 µM. Also, the mutagenicity entry in series [4] is given as “non-mutagenic”. Besides, the IC50 – broadly, the concentration at which inhibition is half-maximal – at 72 h in series [5] was > 167 µM. For the same compound, the IC50 at 72 h in series [6] is > 167 µM. Besides, the MTD in the series “in vivo” is > 100 mg/kg.
